Values joined by “and” are separate entries in the source; they are usually repeats but may differ in a detail not shown here. Identical values can stand only once. Like-named read-outs stand apart in the source and are kept apart here.
Assays:
Kasumi = experiment: MTS proliferation assay, Kasumi; format: cell-based; settings: Homo sapiens; Kasumi, 96-hour treatment; read-out: IC50 (MTS proliferation)
Method: A total of 10,000–20,000 cells from different AML lines or 50,000–75,000 cells of primary AML blasts were treated in a 96-well plate for 72 hours or 96 hours at 37°C, 5% CO2. CellTiter 96 Aqueous MTS reagent (Promega) was added to cells followed by a 3-hour incubation at 37°C, 5% CO2. The absorbance was measured at 490 nm using DTX 880 plate reader, and the IC50 was calculated using GraphPad Prism.

[1] = system: primary AML patient samples; experiment: Flow cytometry viability, primary AML long-term culture; format: cell-based, human
Method: (§1) Cells were thawed in 50% FBS RPMI and then cultured in StemSpan (StemCell Technologies) media supplemented with human FLT3L, SCF, GM-CSF, G-CSF, IL-3, IL-6, TPO, and EPO cytokines for 7 days (LTC).
(§2) After 72 hours or 7 days of treatment of DHODHi, cells were collected and washed with PBS, blocked with human Fc block (BioLegend), and stained with antibodies for 30 minutes on ice. Antibodies were washed off and cells resuspended in FACS buffer (2% FBS, 2 mM NaN3, Dulbecco’s PBS) for analysis using BD LSRFortessa or Cytek Aurora spectral flow cytometer. Live/dead exclusion was done using LIVE/DEAD Fixable Near-IR (Invitrogen). All antibodies were purchased from BioLegend except CD47, which was purchased from BD Biosciences: CD11b clone M1/70, CD38 clone HIT2, CD14 clone M5E2, CD47 clone B6H12, CD33 clone WM53, CD3 clone UCHT1, CD19 clone HIB19, and CD45 clone HI30.
Supplemental Figure S.2. […] A).
Flow cytometry analysis of viable primary AML patient samples (n=10) treated in vitro for seven days
(long term culture, LTC). […]

[2] = system: primary AML patient samples; experiment: Flow cytometry CD47 surface expression, primary AML samples; format: cell-based, human; settings: 50nM
Method: as §1, §2
Supplemental Figure S.8. DHODHi modulates CD47 surface antigen expression. A) Representative flow cytometry overlay histogram plot for CD47 surface expression in MV4-11 cell line following a 72- […]
supplementation (experiment was done five independent times). B) Flow cytometry analysis of CD47 surface expression in primary AML patient samples (n=8-10) treated in vitro for seven days (long term culture, LTC). Data is shown as mean florescent intensity (MFI) of CD47 gated on live CD45+CD3-CD19- cells, error bars indicate mean with 95% confidence interval. C) Representative flow cytometry […]
modulation of CD47 post DHODHi treatment.
(§3) (1 picture or pasted object on this page, not shown here)

MV4-11 AML target cells = experiment: Murine BMDM phagocytosis of MV4-11 cells (ADCP); format: cell-based, human
Method: Supplemental Figure S.9. A) Murine bone marrow derived macrophages (BMDM, effector cells) were generated from harvested bone marrow cells grown in the presence of 20ng/ml murine M-CSF for 7-8 days where media was refreshed on day 3. After BMDM generation, they were collected and stained […]
with CFDA-SE (green). […]
and stained with CTV (blue). Green BMDM cells were then co-cultured for 4 h with blue MV4-11 AML cells in the presence of 10 µg/ml isotype IgG1 or anti-CD47 antibody at 1:1 E:T ratio in an ultra-low binding tissue culture plate. Cells were then collected and analyzed using flow cytometry to quantify percentage of phagocytosed cells indicated by viable F4/80+CFDA+CTV+ cells (n=6). Adjusted FDR p-value *<0.05, ***≤0.0001, nonsignificant (ns) ≥0.05. B) Representative florescent microscopy images were taken using 20x objective to visualize antibody dependent cellular phagocytosis (ADCP). Prior to imaging, the wells were rinsed three time to remove MV4-11 target cells in suspension and allow the imaging of adherent effector cells (green BMDM) and residual blue MV4 -11 target cells. The outlined area in the red box is manually enlarged.
as §3

CYP 3A4 = CYP 3A4 (Homo sapiens, UniProt P08684); experiment: CYP inhibition 3A4; format: in vitro ADME
From the text: Supplement jciinsight-9-173646-s083.xlsx, sheet "Supplemental Table S.2." | column: HOSU-53

plasma DHO = experiment: DHO plasma accumulation in MOLM-13 tumor-bearing mice; format: in vivo, NCG mice; design: unit not given here; settings: 10 mpk PO, female mice, per mouse, 10 mg/kg

CYP 3A4, sequence (P08684 whole entry): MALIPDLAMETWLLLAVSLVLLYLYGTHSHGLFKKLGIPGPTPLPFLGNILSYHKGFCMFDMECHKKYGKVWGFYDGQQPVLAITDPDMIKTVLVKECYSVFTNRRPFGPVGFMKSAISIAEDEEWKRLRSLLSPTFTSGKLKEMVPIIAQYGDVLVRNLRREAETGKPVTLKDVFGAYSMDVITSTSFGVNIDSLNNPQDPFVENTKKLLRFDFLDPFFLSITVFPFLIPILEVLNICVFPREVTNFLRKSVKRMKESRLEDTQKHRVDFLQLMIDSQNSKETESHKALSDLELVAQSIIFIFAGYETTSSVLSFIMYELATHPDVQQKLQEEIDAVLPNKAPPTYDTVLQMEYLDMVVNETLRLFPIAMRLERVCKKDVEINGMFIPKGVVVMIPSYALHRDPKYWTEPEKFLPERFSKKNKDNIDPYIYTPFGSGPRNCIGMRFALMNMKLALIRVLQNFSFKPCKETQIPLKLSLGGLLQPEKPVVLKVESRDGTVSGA

## CCCCOc1cccc(-c2ccc(-c3cc(C(=O)O)c4cc(F)ccc4n3)cc2)c1 [HOSU-53]
Kasumi
  IC50: 45 nM
[1]; Pt.12, 50nM, DMSO 56.46
  % Live (Near-IR negative): 60.99%
[1]; Pt.12, 100nM, DMSO 56.46
  % Live (Near-IR negative): 59.36%
[1]; Pt.13, 50nM, DMSO 72.92
  % Live (Near-IR negative): 72.53%
[1]; Pt.13, 100nM, DMSO 72.92
  % Live (Near-IR negative): 66.43%
[1]; Pt.14, 50nM, DMSO 68.39
  % Live (Near-IR negative): 70.9%
[1]; Pt.14, 100nM, DMSO 68.39
  % Live (Near-IR negative): 55.21%
[1]; Pt.15, 50nM, DMSO 61.7
  % Live (Near-IR negative): 41.58%
[1]; Pt.15, 100nM, DMSO 61.7
  % Live (Near-IR negative): 27.92%
[1]; Pt.16, 50nM, DMSO 45.99
  % Live (Near-IR negative): 41.34%
[1]; Pt.16, 100nM, DMSO 45.99
  % Live (Near-IR negative): 32.16%
[1]; Pt.17, 50nM, DMSO 29.84
  % Live (Near-IR negative): 29.21%
[1]; Pt.17, 100nM, DMSO 29.84
  % Live (Near-IR negative): 25.94%
[1]; Pt.18, 50nM, DMSO 29.72
  % Live (Near-IR negative): 26.96%
[1]; Pt.18, 100nM, DMSO 29.72
  % Live (Near-IR negative): 23.34%
[1]; Pt.19, 50nM, DMSO 75.66
  % Live (Near-IR negative): 74.9%
[1]; Pt.19, 100nM, DMSO 75.66
  % Live (Near-IR negative): 58.74%
[1]; Pt.20, 50nM, DMSO 67.67
  % Live (Near-IR negative): 44.64%
[1]; Pt.20, 100nM, DMSO 67.67
  % Live (Near-IR negative): 42.59%
[1]; Pt.2, 50nM, DMSO 78.52
  % Live (Near-IR negative): 59.04%
[1]; Pt.2, 100nM, DMSO 78.52
  % Live (Near-IR negative): 32.63%
[1]; primary AML samples, 7 days LTC
  cell viability: reduced cell viability
[2]; Pt.12, DMSO 1559.17
  CD47 MFI: 2087.23
[2]; Pt.13, DMSO 1665.27
  CD47 MFI: 1161.83
[2]; Pt.14, DMSO 585.79
  CD47 MFI: 749.14
[2]; Pt.15, DMSO 1002.16
  CD47 MFI: 904.23
[2]; Pt.16, DMSO 1349.33
  CD47 MFI: 1418.1
[2]; Pt.17, DMSO 334.61
  CD47 MFI: 360.19
[2]; Pt.18, DMSO 869.17
  CD47 MFI: 1060.36
[2]; Pt.19, DMSO 364.4
  CD47 MFI: 532.16
[2]; Pt.20, DMSO 398.54
  CD47 MFI: 525.38
[2]; Pt.2, DMSO 446.9
  CD47 MFI: 436.9
MV4-11 AML target cells; 25nM HOSU53 + IgG1, six replicate columns, DMSO + IgG1 control 3.5-16.7
  CDFA+F4/80+CTV+: 31.4 and 44.6 and 23.1 and 30.2 and 23.9 and 17.1
MV4-11 AML target cells; 72-hour HOSU-53 (10nM) pretreatment of MV4-11, 10 µg/ml anti-CD47
  phagocytosis of AML cells by murine BMDM in presence of B6H12 antibody: greatly enhanced phagocytosis
CYP 3A4; substrate midazolam, read-out: CYP inhibition IC50 3A4 (Midazolam)
  IC50: 42.6 µM
CYP 3A4; substrate testosterone, read-out: CYP inhibition IC50 3A4 (testosterone)
  IC50: 22.4 µM
Plasma DHO; Day 1
  DHO AUC (Figure 3C y value): 242.955 and 321.59 and 315.332
Plasma DHO; Day 14
  DHO AUC (Figure 3C y value): 411.662 and 445.373 and 347.096
